Laboratory results taken from patent US5431896A, “Microbial immunoregulant” (Merck & Co., Inc., priority 1992, dated 1995).
Several values for one entry are separate records, joined by “and”; a condition that tells them apart may be missing. Identical values can stand only once. Entries after “also recorded” stand apart in the source; their conditions may differ. Like-named read-outs stand apart in the source and are kept apart here.

Assays:
mouse T lymphocytes = experiment: T-cell proliferation assay (ionomycin plus PMA induced T-cell stimulation, tritiated thymidine uptake); type: cell-based, C57B1/6 mice; conditions: for immunosuppressive activity by the T-cell proliferation assay: qualitative statement
Experimental: The principle of this assay is to measure the proliferation of mouse T lymphocytes stimulated with the combination of ionomycin plus PMA. A positive sample in this assay will inhibit T-cell proliferation, as indicated by reduced tritiated thymidine uptake.
Cells were pelleted by centrifugation at 1500 rpm for 8 minutes. Contaminating red cells were removed by treating the pellet with ammonium chloride lysing buffer (GIBCO) for 2 minutes at 4° C. Cold medium was added and cells were again centrifuged at 1500 rpm for 8 minutes. T lymphocytes were then isolated by separation of the cell suspension on nylon wool columns as follows: Nylon wool columns were prepared by packing approximately 4 grams of washed and dried nylon wool into 20 ml plastic syringes. The columns were sterilized by autoclaving at 250° F. for 30 minutes. Nylon wool columns were wetted with warm (37° C.) culture medium and rinsed with the same medium. Washed spleen cells resuspended in warm medium were slowly applied to the nylon wool. The columns were then incubated in an upright position at 37° C. for 1 hour. Non-adherent T lymphocytes were eluted from the columns with warm culture medium and the cell suspensions were spun as above.
The cell suspension was immediately distributed into 96 well flat-bottom microculture plates (Costar) at 200 μl/well. […] The proliferation of T lymphocytes was assessed by measurement of tritiated thymidine incorporation. After 44 hours of culturing, the cells were pulse-labelled with 2 μCi/well of tritiated thymidine (NEN, Cambridge, Mass.). After another 4 hours of incubation, cultures were harvested on glass fiber filters using a multiple sample harvester. Radioactivity of filter discs corresponding to individual wells was measured by standard liquid scintillation counting methods (Betacounter). Mean counts per minute of replicate wells were calculated and the results expressed as percent inhibition of tritiated thymidine uptake (proliferation) as follows: [formula]

Solubility = type: physicochemical; conditions: methanol
[1] = reputed; EPO Publication No. 0184162; cited from earlier work

Structure (SMILES) | IC50 (mouse T lymphocytes; Mus musculus, T-lymphocyte, 48 h, read-out: IC50 (inhibition of T-cell proliferation)) | inhibition at 0.00011 µg/mL (mouse T lymphocytes; Mus musculus, T-lymphocyte, L-687,819 0.11 ng/ml, 48 h) [%] | inhibition at 0.00026 µg/mL (mouse T lymphocytes; Mus musculus, T-lymphocyte, L-687,819 0.26 ng/ml, 48 h) [%] | inhibition at 0.00058 µg/mL (mouse T lymphocytes; Mus musculus, T-lymphocyte, L-687,819 0.58 ng/ml, 48 h) [%] | inhibition at 0.0013 µg/mL (mouse T lymphocytes; Mus musculus, T-lymphocyte, L-687,819 1.3 ng/ml, 48 h) [%] | inhibition at 0.0029 µg/mL (mouse T lymphocytes; Mus musculus, T-lymphocyte, L-687,819 2.9 ng/ml, 48 h) [%] | inhibition at 0.0044 µg/mL (mouse T lymphocytes; Mus musculus, T-lymphocyte, L-687,819 4.4 ng/ml, 48 h) [%] | inhibition at 0.0066 µg/mL (mouse T lymphocytes; Mus musculus, T-lymphocyte, L-687,819 6.6 ng/ml, 48 h) [%] | inhibition at 0.01 µg/mL (mouse T lymphocytes; Mus musculus, T-lymphocyte, L-687,819 10 ng/ml, 48 h, read-out: % Inhibition of T-cell proliferation) [%] | inhibition at 0.1 µg/mL (mouse T lymphocytes; Mus musculus, T-lymphocyte, L-687,819 100 ng/ml, 48 h) [%] | Inhibition of proliferation on addition of recombinant human IL2 (mouse T lymphocytes; addition of 50 units/ml recombinant human IL2) | immunosuppressive activity by the T-cell proliferation assay (mouse T lymphocytes) | immunosuppressive activity by the T-cell proliferation assay (mouse T lymphocytes; listed as minor component) | Solubility (Solubility) | inhibition at 0.01 µg/mL (mouse T lymphocytes; Mus musculus, T-lymphocyte, 48 h, read-out: inhibition of T-cell proliferation by standard) [%] | potency relative to cyclosporin [1] [times]
CO[C@H]1C[C@@H](C)C/C(C)=C/[C@@H](C)C(=O)C[C@H](O)[C@@H](C)[C@@H](/C(C)=C/[C@@H]2CC[C@@H](O)[C@H](O)C2)OC(=O)[C@@H]2CCCCN2C(=O)C(=O)[C@]2(O)O[C@H]1[C@@H](OC)C[C@H]2C [L-687,819] | 0.007 µg/mL and 9.17 nM | 9.5 | 9.1 | 0 | 0 | 0 | 15.9 | 51.3 | 76.1 | 98.8 | reversed | positive immunosuppressive activity; also recorded: positive inhibition of T-cell activation | shown to possess immunosuppressive activity | Solubility in methanol | – | –
C=CC[C@@H]1/C=C(\C)C[C@H](C)C[C@H](OC)[C@H]2O[C@@](O)(C(=O)C(=O)N3CCCC[C@H]3C(=O)O[C@H](/C(C)=C/[C@@H]3CC[C@@H](O)[C@H](OC)C3)[C@H](C)[C@@H](O)CC1=O)[C@H](C)C[C@@H]2OC [FK-506, reference compound] | – | – | – | – | – | – | – | – | – | – | – | – | – | – | 99 | 100
